Experimental data from patent publication US20240415804A1, “METHOD OF TREATING PANCREATIC CANCER” (University of South Florida, priority 2022, published 2024).

Test system: miR-155
Assay: miR-155 gene expression by RT-qPCR in UN-KC-6141 cells
Format: cell-based, mouse
Details: API 40 μM, 24 h, vs DMSO vehicle
Protocol: MiR-155 is known to be overexpressed in different cancers, including PC^21, 23. The inventors first assessed whether apigenin could modulate the expression of miR-155 in PC cells. Murine PC cell lines Panc02 and UN-KC-6141 as well as the human PC cell line MiaPaCa-2 were treated with API (40 μM) or DMSO vehicle for 24 h and the expression of miR-155 was examined using RT-qPCR assay. […] Since API is known to inhibit the growth of cancer cells, including PC cells^39-43, 47-50, the same PC cell lines were treated with API (40 μM) or DMSO (vehicle) for 24 h and examined cell viability using MTT assay. […] Moreover, Panc02 and UN-KC-6141 cells were then treated with API at a dose dependent concentration (10, 20, 30, 40, 50 μM) and detected apoptosis using flow cytometry (Annexin V and PI).
miR-155 is implicated in the development of pancreatic tumors from pancreatic intraepithelial neoplasia (PanIN) lesions, and is overexpressed in PC^23. The inventors examined whether the depletion of miR-155 modulated PC viability. Murine and human PC cell lines were transfected with miR-155 inhibitor (i.e., MMU-MIR-155-5P/HSA-MIR-155-5P) and scrambled miRNA at a concentration of 100 nM for 24 h and cell viability determined using an MTT assay. The expression of miR-155 was examined using an RT-qPCR assay as well. […]

`O=c1cc(-c2ccc(O)cc2)oc2cc(O)cc(O)c12` [API, 40,5,7-Trihydroxyflavone, 5,7-Dihydroxy-2-(4-hydroxyphenyl)-4-benzopyrone] was tested, and the miR-155 gene expression was “significantly suppressed”.
